# Laboratory results reported in US8436031B2 (priority 2004, dated 2013).
# Target: MarA (Escherichia coli, UniProt P0ACH5)
# Assay: Selective marker (ccdB) under MarA-activated promoter; cell survival under MarA expression (Example 2)
# Assay type: cell-based
# Parameters: key: *: good inhibition of MarA; **: very good inhibition of MarA
# Settings: inhibition of MarA; cell survival under conditions of MarA expression
# Description: In this example, the expression of a selective marker (e.g., ccdB) is put under the direct control of a promoter activated by MarA (e.g., inaA, galT, or micF). In the absence of MarA, the expression of the selective marker is silent and cells survive. Synthesis of MarA from an inducible plasmid in a bacterial or yeast cell leads to the activation of the inaA promoter, expression of ccdB, and subsequently results in cell death. Compounds that inhibit MarA are those that permit cell survival under conditions of MarA expression. In Table 4, * indicates good inhibition of MarA and ** indicates very good inhibition of MarA.
# MarA, sequence (P0ACH5 whole entry, looked up): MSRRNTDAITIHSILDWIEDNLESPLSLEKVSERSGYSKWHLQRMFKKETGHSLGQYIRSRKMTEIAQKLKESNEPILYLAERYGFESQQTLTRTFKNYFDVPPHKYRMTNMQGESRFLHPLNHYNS
row,Compound,MarA inhibition score (cell survival)
1,"CSc1nnc2c(n1)OC(c1ccc(I)o1)Nc1ccccc1-2 (stereo not shown) [A, 6-(5-Iodo-furan-2-yl)-3-methylsulfanyl-6,7-dihydro-5-oxa-1,2,4,7-tetraaza-dibenzo[a,c]cycloheptene]",**
2,"N#Cc1c(-c2ccc3c(c2)OCO3)c(C#N)c2nc3ccccc3n2c1N [AB, 1-Amino-3-benzo[1,3]dioxol-5-yl-benzo[4,5]imidazo[1,2-a]pyridine-2,4-dicarbonitrile]",**
3,"COC(=O)c1ccccc1NC(=O)CSc1nnc(-c2ccco2)n1-c1ccccc1 [AC, 2-[2-(5-Furan-2-yl-4-phenyl-4H-[1,2,4]triazol-3-ylsulfanyl)-acetylamino]-benzoic acid methyl ester]",*
4,"CSc1cccc(NC(=O)CSc2nnc(-c3ccc4nonc4c3)n2C)c1 [AE, 2-(5-Benzo[1,2,5]oxadiazol-5-yl-4-methyl-4H-[1,2,4]triazol-3-ylsulfanyl)-N-(3-methylsulfanyl-phenyl)-acetamide]",*
5,"O=C1C(=C2NC(c3ccccn3)C3C(=O)N(c4ccccc4)C(=O)C23)C(=O)c2ccccc21 (stereo not shown) [AF, 4-(1,3-Dioxo-indan-2-ylidene)-2-phenyl-6-pyridin-2-yl-tetrahydro-pyrrolo[3,4-c]pyrrole-1,3-dione]",**
6,"O=[N+]([O-])c1ccc2nc(-c3ccccc3)n(OCc3cccc(C(F)(F)F)c3)c2c1 [AG, 6-Nitro-2-phenyl-1-(3-trifluoromethyl-benzyloxy)-1H-benzoimidazole]",**
7,"O=C(O)COn1c(-c2ccccc2)nc2ccc([N+](=O)[O-])cc21 [AH, (6-Nitro-2-phenyl-benzoimidazol-1-yloxy)-acetic acid]",**
8,"O=[N+]([O-])c1ccc2nc(-c3ccccc3)n(OCc3ccccc3)c2c1 [AI, 1-Benzyloxy-6-nitro-2-phenyl-1H-benzoimidazole]",**
9,"Cc1ccc(COn2c(-c3ccccc3)nc3ccc([N+](=O)[O-])cc32)cc1 [AJ, 1-(4-Methyl-benzyloxy)-6-nitro-2-phenyl-1H-benzoimidazole]",*
10,"Cn1c(=O)c2c3oc(-c4ccc([N+](=O)[O-])cc4)nc3c(=O)n(-c3ccccc3)c2n(C)c1=O [AK, 6,8-Dimethyl-2-(4-nitro-phenyl)-5-phenyl-5H,6H-1-oxa-3,5,6,8-tetraaza-cyclopenta[a]naphthalene-4,7,9-trione]",**
11,"Cc1ccc(-c2nc3c(=O)n(-c4ccccc4)c4c(c(=O)n(C)c(=O)n4C)c3o2)cc1 [AL, 6,8-Dimethyl-5-phenyl-2-p-tolyl-5H,6H-1-oxa-3,5,6,8-tetraaza-cyclopenta[a]naphthalene-4,7,9-trione]",*
12,"O=c1/c(=C/c2cn(-c3ccccc3)nc2-c2ccc(F)cc2)sc2nc3ccccc3n12 [AM, 2-[3-(4-Fluoro-phenyl)-1-phenyl-1H-pyrazol-4-ylmethylene]-benzo[4,5]imidazo[2,1-b]thiazol-3-one]",**
13,"C=Cc1nc2s/c(=C\c3cn(-c4ccccc4)nc3-c3ccc(F)cc3)c(=O)n2c1C [AO, 2-[3-(4-Fluoro-phenyl)-1-phenyl-1H-pyrazol-4-ylmethylene]-5-methyl-6-vinyl-imidazo[2,1-b]thiazol-3-one]",**
14,"CN(C)c1ccc(-c2cc(=O)c3ccccc3o2)cc1 [AW, 2-[4-(dimethylamino)phenyl]-4H-chromen-4-one]",**
15,"c1ccc(COn2c(-c3ccccc3)nc3ncccc32)cc1 [AX, 1-(benzyloxy)-2-phenyl-1H-imidazo[4,5-b]pyridine]",**
16,"c1ccc(CSc2ncc(-c3nnnn3-c3ccccc3)c(-c3ccccc3)n2)cc1 [AY, 2-(benzylthio)-4-phenyl-5-(1-phenyl-1H-1,2,3,4-tetraazol-5-yl)pyrimidine]",**
17,"O=c1cc(-c2ccccc2)oc2ccc(F)cc12 [AZ, 6-fluoro-2-phenyl-4H-chromen-4-one]",**
18,"CCOc1ccc(C2Nc3ccccc3-c3nnc(SC)nc3O2)cc1 (stereo not shown) [B, 6-(4-Ethoxy-phenyl)-3-methylsulfanyl-6,7-dihydro-5-oxa-1,2,4,7-tetraaza-dibenzo[a,c]cycloheptene]",*
19,"COc1ccc2c(=O)cc(-c3ccccc3)oc2c1 [BA, 7-methoxy-2-phenyl-4H-chromen-4-one]",*

row,Compound,MarA inhibition score (cell survival)
1,"O=C1C(=C2NC(c3ccccn3)C3C(=O)N(c4ccccc4)C(=O)C23)C(=O)c2ccccc21 (stereo not shown) [BB, 4-(1,3-dioxo-1,3-dihydro-2H-inden-2-yliden)-2-phenyl-6-(2-pyridinyl)tetrahydro pyrrolo[3,4-c]pyrrole-1,3(2H,3aH)-dione]",*
2,"CCOC(=O)C(C(N)=O)C1(O)OC(c2ccc(C)cc2)=CC1=O (stereo not shown) [BC, 2-(2-Hydroxy-3-oxo-5-p-tolyl-2,3-dihydro-furan-2-yl)-malonamic acid ethyl ester]",*
3,"O=C(O)COn1c(-c2ccccc2)nc2ccc([N+](=O)[O-])cc21 [BD, 2-[(6-nitro-2-phenyl-1H-1,3-benzimidazol-1-yl)oxy]acetic acid]",*
4,"O=c1cc(-c2ccc(F)cc2)oc2ccccc12 [BE, 2-(4-fluorophenyl)-4H-chromen-4-one]",*
5,"COn1c(-c2ccc(C)cc2)nc2ncccc21 [BF, 1-methoxy-2-(4-methylphenyl)-1H-imidazo[4,5-b]pyridine]",*
6,"O=c1cc(-c2ccc(O)cc2)oc2ccccc12 [BG, 2-(4-hydroxyphenyl)-4H-chromen-4-one]",*
7,"CSc1nnc2c(n1)OC(c1ccc([N+](=O)[O-])o1)Nc1ccccc1-2 (stereo not shown) [C, 3-Methylsulfanyl-6-(5-nitro-furan-2-yl)-6,7-dihydro-5-oxa-1,2,4,7-tetraaza-dibenzo[a,c]cycloheptene]",*
8,"CSc1nnc2c(n1)OC(c1ccc(-c3ccc([N+](=O)[O-])cc3)o1)Nc1ccccc1-2 (stereo not shown) [D, 3-Methylsulfanyl-6-[5-(4-nitro-phenyl)-furan-2-yl]-6,7-dihydro-5-oxa-1,2,4,7-tetraaza-dibenzo[a,c]cycloheptene]",*
9,"CCSc1nnc2c(n1)OC(c1ccc(O)c(O)c1)Nc1ccccc1-2 (stereo not shown) [E, 4-(3-Ethylsulfanyl-6,7-dihydro-5-oxa-1,2,4,7-tetraaza-dibenzo[a,c]cyclo-hepten-6-yl)-benzene-1,2-diol]",*
10,"CCCSc1nnc2c(n1)OC(c1ccc(OCc3ccccc3)cc1)Nc1ccccc1-2 (stereo not shown) [F, 6-(4-Benzyloxy-phenyl)-3-propylsulfanyl-6,7-dihydro-5-oxa-1,2,4,7-tetraaza-dibenzo[a,c]cycloheptene]",**
11,"CCCCSc1nnc2c(n1)OC(c1ccc(OC)cc1OC)Nc1ccccc1-2 (stereo not shown) [H, 3-Butylsulfanyl-6-(2,4-dimethoxy-phenyl)-6,7-dihydro-5-oxa-1,2,4,7-tetraaza-dibenzo[a,c]cycloheptene]",*
12,"C=CCOc1ccc(C2Nc3ccccc3-c3nnc(SCCCC)nc3O2)cc1 (stereo not shown) [I, 6-(4-Allyloxy-phenyl)-3-butylsulfanyl-6,7-dihydro-5-oxa-1,2,4,7-tetraaza-dibenzo[a,c]cycloheptene]",**
13,"CCCCSc1nnc2c(n1)OC(c1ccc(OCC)cc1)Nc1ccccc1-2 (stereo not shown) [J, 3-Butylsulfanyl-6-(4-ethoxy-phenyl)-6,7-dihydro-5-oxa-1,2,4,7-tetraaza-dibenzo[a,c]cycloheptene]",*
14,"CCCSc1nnc2c(n1)OC(c1ccc(OC)cc1)Nc1ccccc1-2 (stereo not shown) [K, 6-(4-Methoxy-phenyl)-3-propylsulfanyl-6,7-dihydro-5-oxa-1,2,4,7-tetraaza-dibenzo[a,c]cycloheptene]",*
15,"CCCSc1nnc2c(n1)OC(c1ccc(-c3cccc([N+](=O)[O-])c3)o1)Nc1ccccc1-2 (stereo not shown) [L, 6-[5-(3-Nitro-phenyl)-furan-2-yl]-3-propylsulfanyl-6,7-dihydro-5-oxa-1,2,4,7-tetraaza-dibenzo[a,c]cycloheptene]",**
16,"O=c1/c(=C/c2c[nH]nc2-c2ccccc2)sc2nc3ccccc3n12 [M, 2-(3-Phenyl-1H-pyrazol-4-ylmethylene)-benzo[4,5]imidazo[2,1-b]thiazol-3-one]",**
17,"CCOC(=O)C1=C(C)N=c2s/c(=C\c3ccc(-c4cccc(C(=O)O)c4)o3)c(=O)n2C1c1c(OC)ccc2ccccc12 (stereo not shown) [N, 2-[5-(3-Carboxy-phenyl)-furan-2-ylmethylene]-5-(2-methoxy-naphthalen-1-yl)-7-methyl-3-oxo-2,3-dihydro-5H-thiazolo[3,2-a]pyrimidine-6-carboxylic acid ethyl ester]",**
18,"CCOC(=O)C1=C(C)N=c2sc(=Cc3ccc(-c4ccc([N+](=O)[O-])cc4C)o3)c(=O)n2C1c1ccc2c(c1)OCO2 (stereo not shown) [P, 5-Benzo[1,3]dioxol-5-yl-7-methyl-2-[5-(2-methyl-4-nitro-phenyl)-furan-2-ylmethylene]-3-oxo-2,3-dihydro-5H-thiazolo[3,2-a]pyrimidine-6-carboxylic acid ethyl ester]",*
